≈ marks a conversion by molar mass, not a printed value. Where a SMILES comes first, the peptide text is derived from it. Bridges are numbered along the chain shown (N, C = ends). Roman numbers before positions name the chains, in order. [ ]: non-standard residue; d: D form. The star is where a group is joined. Thr(ol) = C[C@@H](O)[C@H](N)CO; Tle = CC(C)(C)[C@H](N)C(=O)O; Hiv = CC(C)[C@H](O)C(=O)O; dDab = NCC[C@@H](N)C(=O)O; hSer = N[C@@H](CCO)C(=O)O; NHCH(CH2OH)2 = OCC(CO)N*; Orn = NCCC[C@H](N)C(=O)O; Dab = NCC[C@H](N)C(=O)O; Dap = NC[C@H](N)C(=O)O
Experiments:
Assay type in all cases: cell-based
[1] = system: human red blood cells (hRBC); test: Hemolysis; conditions: red cells of human, 1 h, 200
Experimental: The peptides were tested for their hemolytic activity against human red blood cells (hRBC). Fresh hRBC were washed four times with phosphate buffered saline (PBS) and centrifuged for 10 min at 3000×g. Compounds (200 μg/mL) were incubated with 20% hRBC (v/v) for 1 h at 37° C. and shaking at 300 rpm. A value of 0% and 100% cell lysis, respectively, was determined by incubation of hRBC in the presence of PBS containing 10% water and 2% Triton X-100 in H2O, respectively. The samples were centrifuged, the supernatants were ˜7.5-fold diluted in PBS buffer and the optical densities (OD) were measured at 540 nm and blank corrected. The 100% lysis value (OD540Triton X-100) gave an OD540 of approximately 0.5-1.0.
Percent hemolysis was calculated as follows: (OD540peptide/OD540Triton X-100)×100%.

[2] = system: Klebsiella pneumoniae SSI #3010; conditions: SSI #3010
Experimental: (§1) The in vitro antimicrobial activities of the peptides were determined in 96-well plates (Greiner, polystyrene) by the standard CLSI broth microdilution method (Clinical and Laboratory Standards Institute 2014. Performance standards for antimicrobial susceptibility testing, 24th informational supplement. Approved standard CLSI M100-S24; Clinical and Laboratory Standards Institute, Wayne, Pa.). The following microorganisms were used to determine antibiotic activity of the peptides: Escherichia coli ATCC 25922, Klebsiella pneumoniae SSI #3010^a), Acinetobacter baumannii DSM 30008, Pseudomonas aeruginosa ATCC 27853 and the clinical isolates Escherichia coli 926415^b), Klebsiella pneumoniae 968733^b), Acinetobacter baumannii 872842^b), Enterobacter cloacae 848840^b) and Escherichia coli MCR-1 Af45^c). Before preparation of inocula, Escherichia coli MCR-1 Af45 was subcultured on Mueller-Hinton II (MH-cation adjusted) agar containing 2 μg/mL colistin. ^a) Obtained from Statens Serum Institut (SSI), Copenhagen, Denmark^b) Obtained from International Health Management Associates, Inc. (IHMA Europe Sàrl), Epalinges, Switzerland^c) Obtained from Prof. Patrice Nordmann, University of Fribourg, Fribourg, Switzerland
(§2) Inocula of the microorganisms were diluted into Mueller-Hinton II (MH-cation adjusted) broth and compared with a 0.5 McFarland standard to give appr. 10^6 colony forming units (CFU)/mL. Aliquots (90 μL) of inoculum were added to 10 μL of MH-II broth+P-80 (Polysorbate 80, 0.002% final concentration, v/v) containing the peptide in serial two-fold dilutions. Antimicrobial activities of the peptides were expressed as the minimal inhibitory concentration (MIC) in μg/mL at which no visible growth was observed after 18-20 hours of incubation at 35° C.

[3] = system: Escherichia coli 926415; conditions: 926415
Experimental: as §1, §2

[4] = system: Pseudomonas aeruginosa ATCC 27853; conditions: ATCC 27853
Experimental: as §1, §2

[5] = system: Klebsiella pneumoniae 968733; conditions: 968733
Experimental: as §1, §2

[6] = system: Acinetobacter baumannii 872842; conditions: 872842
Experimental: as §1, §2

[7] = system: Acinetobacter baumannii DSM 30008; conditions: DSM 30008
Experimental: as §1, §2

[8] = system: Escherichia coli ATCC 25922; conditions: ATCC 25922
Experimental: as §1, §2

Structure (SMILES)	Hemolysis at 200 μg/mL [1] [%]	MIC [2] [µg/mL]	MIC [3] [µg/mL]	MIC [4] [µg/mL]	MIC [5] [µg/mL]	MIC [6] [µg/mL]	MIC [7] [µg/mL]	MIC [8] [µg/mL]
CC(C)C[C@@H]1NC(=O)[C@@H](CC(C)C)NC(=O)[C@H](CCN)NC(=O)[C@@H](NC(=O)[C@H](CN)NC(=O)[C@@H](NC(=O)[C@H](CCN)NC(=O)CC[C@@H]2NC(=O)[C@H](CCCN)NC(=O)[C@@H](NC(=O)[C@H](Cc3ccc(O)cc3)NC(=O)[C@@H](NC(=O)[C@@H](O)C(C)C)[C@@H](C)O)CSSC[C@@H](C(=O)N[C@H](C(=O)N[C@@H](C)C(=O)N[C@H](CO)[C@@H](C)O)C(C)(C)C)NC(=O)[C@H](Cc3c[nH]c4ccccc34)NC(=O)[C@H]([C@@H](C)O)NC2=O)[C@@H](C)O)CCNC(=O)[C@H]([C@@H](C)O)NC(=O)[C@H](CCN)NC(=O)[C@H](CCN)NC1=O [Ex. 209] (I: H-[Hiv]TYC[Orn]ETWC[Tle]A[Thr(ol)] / II: [Dab]T[Dap][Dab][Dab][dL]L[Dab][Dab]T; disulfide I:4-I:9; amide I:6-II:N; lactam II:4-II:C)	<1	0.25 (≈ 0.105 µM)	1 (≈ 0.419 µM)	0.5 (≈ 0.21 µM)	4 (≈ 1.68 µM)	2 (≈ 0.838 µM)	0.25 (≈ 0.105 µM)	0.125 (≈ 0.0524 µM)
CC(=O)N[C@H](C(=O)N[C@H]1CSSC[C@@H](C(=O)N[C@H](C(N)=O)C(C)C)NC(=O)[C@H](Cc2ccc(O)cc2)NC(=O)[C@H](CO)NC(=O)[C@H](Cc2c[nH]c3ccccc23)NC(=O)[C@H](CCO)NC(=O)[C@@H](CCN)NC(=O)[C@H](CCC(=O)N[C@@H](CCN)C(=O)N[C@H](C(=O)N[C@@H](CCN)C(=O)N[C@H]2CCNC(=O)[C@H]([C@@H](C)O)NC(=O)[C@H](CCN)NC(=O)[C@H](CCN)NC(=O)[C@H](CC(C)C)NC(=O)[C@@H](CC(C)C)NC(=O)[C@H](CCN)NC2=O)[C@@H](C)O)NC(=O)[C@H](CCN)NC(=O)[C@H](CO)NC1=O)C(C)C [Ex. 68] (I: Ac-VCS[Dab]E[dDab][hSer]WSYCV-NH2 / II: [Dab]T[Dab][Dab][Dab][dL]L[Dab][Dab]T; disulfide I:2-I:11; amide I:5-II:N; lactam II:4-II:C)	<1	0.125 (≈ 0.0515 µM)	2 (≈ 0.824 µM)	0.5 (≈ 0.206 µM)	1 (≈ 0.412 µM)	8 (≈ 3.3 µM)	0.25 (≈ 0.103 µM)	0.25 (≈ 0.103 µM)
CC(C)C[C@@H]1NC(=O)[C@@H](CC(C)C)NC(=O)[C@H](CCN)NC(=O)[C@@H](NC(=O)[C@H](CN)NC(=O)[C@@H](NC(=O)[C@H](CCN)NC(=O)CC[C@@H]2NC(=O)[C@H](CCCN)NC(=O)[C@H](CCN)NC(=O)[C@H](Cc3ccc(O)cc3)NC(=O)[C@@H](NC(=O)[C@@H](O)C(C)C)CSSC[C@@H](C(=O)NC(CO)CO)NC(=O)[C@H](C(C)(C)C)NC(=O)[C@H](CO)NC(=O)[C@H](Cc3c[nH]c4ccccc34)NC(=O)[C@H]([C@@H](C)O)NC2=O)[C@@H](C)O)CCNC(=O)[C@H]([C@@H](C)O)NC(=O)[C@H](CCN)NC(=O)[C@H](CCN)NC1=O [Ex. 162] (I: H-[Hiv]CY[Dab][Orn]ETWS[Tle]C-{NHCH(CH2OH)2} / II: [Dab]T[Dap][Dab][Dab][dL]L[Dab][Dab]T; disulfide I:2-I:11; amide I:6-II:N; lactam II:4-II:C)	<1	0.5 (≈ 0.209 µM)	1 (≈ 0.419 µM)	0.25 (≈ 0.105 µM)	8 (≈ 3.35 µM)	0.5 (≈ 0.209 µM)	0.25 (≈ 0.105 µM)	0.125 (≈ 0.0524 µM)
CC(C)C[C@@H]1NC(=O)[C@@H](CC(C)C)NC(=O)[C@H](CCN)NC(=O)[C@@H](NC(=O)[C@H](CN)NC(=O)[C@@H](NC(=O)[C@H](CCN)NC(=O)CC[C@H]2NC(=O)CNC(=O)[C@H](CCCN)NC(=O)[C@H](CCN)NC(=O)[C@H](Cc3ccc(O)cc3)NC(=O)[C@@H](NC(=O)[C@@H](O)C(C)C)CSSC[C@@H](C(=O)N[C@H](C(N)=O)[C@@H](C)O)NC(=O)[C@H](C(C)(C)C)NC(=O)[C@H](CO)NC(=O)[C@H](Cc3c[nH]c4ccccc34)NC2=O)[C@@H](C)O)CCNC(=O)[C@H]([C@@H](C)O)NC(=O)[C@H](CCN)NC(=O)[C@H](CCN)NC1=O [Ex. 170] (I: H-[Hiv]CY[Dab][Orn]G[dE]WS[Tle]CT-NH2 / II: [Dab]T[Dap][Dab][Dab][dL]L[Dab][Dab]T; disulfide I:2-I:11; amide I:7-II:N; lactam II:4-II:C)	<1	0.5 (≈ 0.211 µM)	0.5 (≈ 0.211 µM)	0.5 (≈ 0.211 µM)	2 (≈ 0.844 µM)	2 (≈ 0.844 µM)	0.25 (≈ 0.105 µM)	0.125 (≈ 0.0527 µM)
CC(=O)N[C@@H](CCN)C(=O)N[C@H](C(=O)N[C@H](C(=O)N[C@@H](Cc1ccc(O)cc1)C(=O)N[C@H]1CSSC[C@@H](C(=O)N[C@H](C(=O)N[C@@H](CCN)C(N)=O)C(C)(C)C)NC(=O)[C@H](Cc2c[nH]c3ccccc23)NC(=O)[C@H](CO)NC(=O)[C@@H](CCN)NC(=O)[C@H](CCC(=O)N[C@@H](CCN)C(=O)N[C@H](C(=O)N[C@@H](CN)C(=O)N[C@H]2CCNC(=O)[C@H]([C@@H](C)O)NC(=O)[C@H](CCN)NC(=O)[C@H](CCN)NC(=O)[C@H](CC(C)C)NC(=O)[C@@H](CC(C)C)NC(=O)[C@H](CCN)NC2=O)[C@@H](C)O)NC1=O)[C@@H](C)O)C(C)C [Ex. 218] (I: Ac-[Dab]VTYCE[dDab]SWC[Tle][Dab]-NH2 / II: [Dab]T[Dap][Dab][Dab][dL]L[Dab][Dab]T; disulfide I:5-I:10; amide I:6-II:N; lactam II:4-II:C)	<1	0.125 (≈ 0.0512 µM)	–	0.125 (≈ 0.0512 µM)	–	–	0.125 (≈ 0.0512 µM)	0.125 (≈ 0.0512 µM)
CC(=O)N[C@@H](CCN)C(=O)N[C@H](C(=O)N[C@@H](CN)C(=O)N[C@@H](Cc1ccc(O)cc1)C(=O)N[C@H]1CSSC[C@@H](C(=O)N[C@H](C(N)=O)C(C)(C)C)NC(=O)[C@H](Cc2c[nH]c3ccccc23)NC(=O)[C@H](CO)NC(=O)[C@@H](CCN)NC(=O)[C@H](CCC(=O)N[C@@H](CCN)C(=O)N[C@H](C(=O)N[C@@H](CN)C(=O)N[C@H]2CCNC(=O)[C@H]([C@@H](C)O)NC(=O)[C@H](CCN)NC(=O)[C@H](CCN)NC(=O)[C@H](CC(C)C)NC(=O)[C@@H](CC(C)C)NC(=O)[C@H](CCN)NC2=O)[C@@H](C)O)NC1=O)C(C)C [Ex. 13] (I: Ac-[Dab]V[Dap]YCE[dDab]SWC[Tle]-NH2 / II: [Dab]T[Dap][Dab][Dab][dL]L[Dab][Dab]T; disulfide I:5-I:10; amide I:6-II:N; lactam II:4-II:C)	<1	0.125 (≈ 0.0538 µM)	–	0.125 (≈ 0.0538 µM)	–	–	0.125 (≈ 0.0538 µM)	0.125 (≈ 0.0538 µM)
CC(=O)N[C@H](C(=O)N[C@H]1CCCNC(=O)[C@@H](CC(N)=O)NC(=O)[C@H](C(C)(C)C)NC(=O)[C@H](CO)NC(=O)[C@H](Cc2c[nH]c3ccccc23)NC(=O)[C@H](CCO)NC(=O)[C@@H](CCN)NC(=O)[C@H](CCC(=O)N[C@@H](CCN)C(=O)N[C@H](C(=O)N[C@@H](CN)C(=O)N[C@H]2CCNC(=O)[C@H]([C@@H](C)O)NC(=O)[C@H](CCN)NC(=O)[C@H](CCN)NC(=O)[C@H](CC(C)C)NC(=O)[C@@H](CC(C)C)NC(=O)[C@H](CCN)NC2=O)[C@@H](C)O)NC(=O)[C@H](CO)NC(=O)[C@H](Cc2ccc(O)cc2)NC1=O)C(C)C [Ex. 19] (I: Ac-V[Orn]YSE[dDab][hSer]WS[Tle][dN] / II: [Dab]T[Dap][Dab][Dab][dL]L[Dab][Dab]T; lactam I:2-I:C, II:4-II:C; amide I:5-II:N)	<1	0.125 (≈ 0.0536 µM)	–	0.25 (≈ 0.107 µM)	–	–	0.125 (≈ 0.0536 µM)	0.125 (≈ 0.0536 µM)

— patent US11629171B2, “Beta-hairpin peptidomimetics” (POLYPHOR AG, priority 2017, dated 2023)
